Assay results: patent US9408845B2, “Formulations containing pyridazine compounds” (Northwestern University, priority 2006, dated 2016)
“Also recorded” adds a separate entry of the source. Like-named read-outs stand apart in the source and are kept apart here.

Key:
[1] = tested on: nitric oxide (NO) production in BV-2 microglial cells; experiment: LPS-stimulated accumulation of nitrite (NO metabolite) in BV-2 cells, Griess assay; format: cell-based, mouse; details: Mus musculus, read-out: NO, concentration required for 50% inhibition
[2] = tested on: human Aβ infusion mouse model; experiment: Human Aβ infusion mouse model, hippocampal neuroinflammation and synaptic biochemical endpoints; format: in vivo; details: hippocampus, Aβ-infused mice, oral compound
Experimental: The study design and treatment paradigm for intracerebroventricular (ICV) infusion of human oligomerie Aβ1-42 into the mouse will be as described previously (Craft et al., Neurobiol Aging 25:1283-1292, 2004b), except that compound administration will be by mouth. Female C57Bl/6 mice (Harlan) weighing 20-25 g (3-4 months old) will be housed in a pathogen free facility under an approximate 12 h/12 h dark and light cycle and they will have access ad libitum to food and water.
(§1) Once per day treatment will begin at day 21 after start of Aβ ICV infusion and continue for 14 days. Beginning at day 50 after start of Aβ ICV infusion, the Y maze test of spontaneous alternation will be used to evaluate hippocampus dependent spatial learning as described previously (Craf et al., J Mol. Neurosci. 24:115-122, 2004a). Briefly, each mouse will be placed in the “start” arm and then released to choose one of the two other arms. The mouse will be blocked from exiting the chosen arm for 30 s then they will be placed back in the start arm and released again to choose one of the two other arms. If the second choice is different from the first one, the mouse will be scored as alternating. Mice will be tested for 10 days with one trial per day, and a mean percent alternation will be calculated for each mouse. […] The brain will be removed and longitudinally bisected as described previously (Craft et al., Neurobiolo Aging 25:12834292, 2004b). […] The hippocampus will be dissected from the left half of the brain and snap-frozen for subsequent biochemical evaluation.
S100B levels in hippocampal supernatants will be measured by a empium-based ELISA essentially as previously described (Van Eldik and Griffin, Biochem Biophys Acta 1223:398-403, 1994). Synaptophysin levels in hippocampal supernatants will be quantified by ELISA following the procedure described previously (Craft at al, 20041, supra). PSD-95 levels will be determined by Western blots using anti-PSD-95 antibodies (1:100,000 dilution; Upstate Biotechnology) as described (Craft et al., 2004b).
It was previously shown that Aβ-induced neuroinflammation is an early event associated with the onset and progression of pathophysiology, and can be suppressed by an inhibitor of glial activation. Female C57Bl/6 mice (Harlan) weighing […] (3-4 months old) were housed in a pathogen free facility under an approximate 12 h/12 h dark and light cycle and had access ad libitum to food and water. All animal procedures were approved by the Northwestern Animal Care and Use Committee.

[3] = tested on: human Aβ infusion mouse model; experiment: Human Aβ infusion mouse model, Y maze behavioral assay; format: in vivo; details: 1.25, 2.5, 5, and 10 mg/kg
Excerpt: as §1

[4] = tested on: QT interval in Lead II electrocardiogram, anesthetized guinea pigs; experiment: Cardiac QT interval prolongation assay in anesthetized guinea pigs
Experimental: The QT interval studies are performed by evaluating compounds for effects on QT interval in Lead II electrocardiograms measured in anesthetized guinea pigs (Hirohashi et al., 1991, Arzneim.-Forsch./Drug Res 41:9-18), one of the species recommended in the FDA white paper. Vehicle or compound is administered orally at 15 mg/kg (dosing volume of 10 ml/kg) to groups of male guinea pigs (weighing 330-350 g), with 5 animals per group. […] Heart rate, arterial blood pressure, and QT intervals are measured at baseline, and at 15, 30, 45, and 60 min after compound administration. Sotalol administered iv at 0.3 mg/kg serves as the positive control compound. The QT intervals are corrected for changes in heart rate using both Bazetes and Fridericia's formulae. Any increase in QT interval values over baseline values exceeding the upper 95% confidence limit of the mean changes at the corresponding time point in the vehicle-treated control group for two consecutive observation times indicates significant QT interval prolongation in the individually treated animals.
The QT intervals (QTc) were corrected for changes in heart rate using both Bazett's and Fridericia's formulae.
The test substance was dissolved in 2% Tween 80 and administered by oral administration. The substance was treated at 15 mg/kg with a dosing volume of 10 ml/kg. Duncan Hartley derived guinea pigs provided by MDS Pharma Services—Taiwan Ltd were used. Sotalol was obtained from Sigma, USA.
Groups of guinea pigs (weighing 330-350 g) with 5 animals each were employed. The animals were anesthetized with urethane (1500 mg/kg, IV bolus injection in a volume of 5 ml/kg) and breathed spontaneously. Lead II ECG was obtained with subdermal needle electrodes and ECG signal conditioner. Heart rate was measured with a pulse rate tachometer. The carotid artery was cannulated with a catheter that was connected to a pressure transducer and a pressure processor for measurements of arterial blood pressure (BP). […] QTC intervals were obtained by correction for heart rate changes using Bazett's and Fridericia's formulae. Increase in QTc interval in individual treated guinea pigs that lies outside the upper limit of 95% confidence limits (mean±SD) of the changes for the vehicle-treated control at corresponding time points for two consecutive times is considered significant.

[5] = tested on: liver histology, mice; experiment: Chronic, therapeutic dose liver toxicity assay
Excerpt: Mice will be anesthetized and sacrificed as described above. Livers will be removed, fixed in 4% (v/v) paraformaldehyde and paraffin-embedded for histology. To assess histological toxicity, 4 μm liver sections will be stained with haematoxylin and eosin. Two independent observers blinded to the treatment groups will perform microscopic assessment of the tissue for injury.
After two weeks of treatment, mice are sacrificed and liver toxicity analyzed as described above. For each chronic toxicity assay, 5 mg of compound is required.
Mice were anesthetized and killed as described above. Livers were removed, fixed in 4% (v/v) paraformaldehyde, and paraffin-embedded for histology. To assess histological toxicity, 4 pan liver sections were stained with hematoxylin and eosin. Two independent observers blinded to the treatment groups performed microscopic assessment of the tissue for injury.

[6] = tested on: LPS-induced IL-1β production in BV-2 microglia cells; experiment: LPS-induced IL-1β production in BV-2 microglial cells; details: Mus musculus, BV-2, 16 h, read-out: IL-1β, concentration required for 50% inhibition
[7] = mouse, in vivo
[8] = Caccia et al., 1985; cited from earlier work

Row | Compound | loss of PSD-95 [2] | loss of synaptophysin [2] | up-regulation of IL-1β [2] | up-regulation of S100B [2] | prevention of Y-maze behavioral deficit [3] | liver toxicity score versus control mice ([5]; mouse, in vivo, po, […]) | other results
1 | Cc1cc(-c2ccccc2)nnc1N1CCN(c2ncccn2)CC1 [MW01-2-151SRM, 4-methyl-6-phenyl-3-(4-pyrimidin-2-ylpiperazin-1-yl)pyridazine] | prevented | prevented | blocked | blocked | significantly effective | no significant differences | IC50 ([1]; LPS-stimulated BV-2 cells, 16 hrs): > 25 µM; effect on heart rate ([4]; 15 mg/kg PO): no significant effects; effect on mean blood pressure ([4]; 15 mg/kg PO): no significant effects; QTc / QT interval prolongation ([4]; 15 mg/kg PO, 60 min post-dosing, 5 guinea pigs): did not cause any significant prolongation; also recorded: Neither compound increased; IC50 [6]: 8.3 ± 5.8 µM
2 | c1ccc(-c2cc(-c3ccccc3)c(N3CCN(c4ncccn4)CC3)nn2)cc1 [MW01-5-188WH, 4,6-diphenyl-3-(4-pyrimidin-2-ylpiperazin-1-yl)pyridazine] | – | – | – | – | – | no significant differences | IC50 ([1]; BV-2, 16 h): > 25 µM; oral bioavailability properties [7]: good oral bioavailability; time of decline to basal levels / bulk clearance, plasma/blood ([7]; po): ≤ 120 min
3 | c1ccc(-c2cc(-c3ccncc3)c(N3CCN(c4ncccn4)CC3)nn2)cc1 [MW01-6-189WH, 4-pyridyl-6-phenyl-3-(4-pyrimidin-2-ylpiperazin-1-yl)pyridazine] | prevented | trend toward preventing | blocked | blocked | significantly effective | – | liver toxicity score versus control mice ([5]; C57Bl/6 mice, […] oral, 2 weeks, scale 0 (best) to 9 (worst)): no significant differences
4 | Cc1cc(-c2ccccc2)nnc1NCCN1CCOCC1 [minaprinc, minaprine] | – | – | – | – | – | – | brain/blood ratio [8]: about 2
5 | CC(C)NCC(O)c1ccc(NS(C)(=O)=O)cc1 (centres unmarked) [sotalol, reference compound] | – | – | – | – | – | – | QTc interval prolongation ([4]; 0.3 mg/kg iv, positive control): caused significant prolongation; also recorded: significant increase
